Results reported in paper PMC8955020, “Pharmacokinetics of Nafamostat, a Potent Serine Protease Inhibitor, by a Novel LC-MS/MS Analysis” (Molecules, 2022).
Where two headings read alike, the source gives them in different places.

Legend:
[1] = Pharmacokinetics of nafamostat in rats after intravenous injection and oral administration (LC-MS/MS, non-compartmental); type: in vivo; settings: rat
Experimental: Therefore, nafamostat dissolved in 5% DMSO was administered by intravenous injection via penile vein at a dose of 2 mg/kg (n = 5). For oral administration, nafamostat was dissolved in two types of vehicles: (1) 10% DMSO, (2) 10% DMSO with 10% Tween 80, and orally administered at a dose of 20 mg/kg (n = 5). […] The animal study was approved by the Ethics Committee for the Treatment of Laboratory Animals at Sungkyunkwan University (SKKUIACUC2021-01-57-1) and conducted in accordance with the standard operating procedures (SOPs). Male Sprague–Dawley rats (7 weeks, 188–204 g; DBL, Eumseong, Korea) were kept in plastic cages with free access to a standard diet (Cargill Agri Purina, Seongnam, Korea) and water. The animals were maintained at a temperature of 23 ± 2 °C with a 12 h light–dark cycle and relative humidity of 50 ± 10%. Nafamostat dissolved in 5% DMSO (1 mg/mL) was administered by intravenous injection via penile vein at a dose of 2 mg/kg (n = 5). Approximately 0.3 mL of the venous blood samples were collected at 5, 10, 15, 30 min, 1, 1.5, 2, 3, 4, 6, 8, and 12 h after drug administration directly from the jugular vein. For oral administration, nafamostat was dissolved in two types of vehicle: (1) 10% DMSO, (2) 10% DMSO with 10% Tween 80. The prepared nafamostat solution in Vehicle 1 or Vehicle 2 was orally administered at a dose of 20 mg/kg (n = 5). Approximately 0.3 mL of the venous blood samples were collected at 15, 30, 45 min, 1, 1.5, 2, 3, 4, 6, 8, and 12 h after drug administration directly from the jugular vein. Plasma samples were obtained by centrifugation of the blood samples at 15,000× g for 5 min. Finally, 150 μL of the plasma samples were mixed with 3 μL of the 5.5 mol/L HCl and stored at −20 °C until analysis. The plasma nafamostat concentration–time data were analyzed by a non-compartmental method using the nonlinear least-squares regression program, Phoenix WinNonlin (Version 6.4, Certara, L.P., Princeton, NJ, USA).

[2] = Effect of pH on stability of nafamostat in plasma under different storage conditions; type: in vitro ADME, rat; settings: 160 ng/mL in plasma
Experimental: Nafamostat in the biological fluid is highly unstable because it is rapidly hydrolyzed by erythrocytes in the blood, as well as by arylesterase in the plasma. Quick plasma preparation is one of the general stabilization strategies for unstable compounds in the biological matrices. Therefore, to prevent the hydrolysis of nafamostat by erythrocytes after acquiring the blood samples, the centrifugation time of the blood samples was shortened from 10 to 5 min. In addition, the stability of nafamostat was examined by modulating the pH of plasma samples to determine the optimal pH to minimize the enzymatic hydrolysis. […] Nafamostat concentrations were also determined under various storage conditions, i.e., (A) immediately, (B) after 24 h left at room temperature, (C) after being subjected to five freeze–thaw cycles, and (D) after 10 days at −20 °C. […] Accordingly, once plasma samples were collected, 3 µL of 5.5 mol/L HCl was added to 150 µL of the collected plasma samples to keep the plasma samples in 0.35% HCl (pH = 1.2).

[3] = design: method as in PMID 18392693; settings: humans; cited from earlier work
[4] = Stability of nafamostat in rat plasma (autosampler, freeze/thaw, short-term, long-term); type: in vitro ADME; settings: for Percentage over Theoretical Concentration, Long-Term Stability: 2 weeks; for Percentage over Theoretical Concentration, Freeze/Thaw Stability: 5 cycles; for Percentage over Theoretical Concentration, Autosampler Stability / Percentage over Theoretical Concentration, Short-Term Stability: 24 h; for Percentage over Theoretical Concentration, Autosampler Stability: 4 °C; for Percentage over Theoretical Concentration, Short-Term Stability: 20 °C
Experimental: The stability of the nafamostat in the rat plasma was determined under four different storage conditions. […] The stability of nafamostat and IS was examined under four different conditions using three replicates of low, medium, and high QC samples in the rat plasma. The autosampler stability was determined by analyzing the QC samples left in the autosampler at 4 °C for 24 h. The freeze–thaw stability was determined by analyzing the QC samples subject to five freeze–thaw cycles. The short-term stability was determined by analyzing the QC samples left at room temperature for 24 h. […] All stability data were expressed as the percentage of the mean response of the QC samples for stability tests vs. those of the freshly prepared samples at the same concentrations.

[5] = male, Sprague-Dawley, plasma, iv, 2 mg/kg, IV injection 2 mg/kg in 5% DMSO
[6] = male, Sprague-Dawley, plasma, po, 20 mg/kg, oral 20 mg/kg, vehicle 1: 10% DMSO
[7] = male, Sprague-Dawley, plasma, po, 20 mg/kg, oral 20 mg/kg, vehicle 2: 10% DMSO + 10% Tween 80
[8] = IV injection 2 mg/kg in 5% DMSO

## N=C(N)c1ccc2cc(OC(=O)c3ccc(N=C(N)N)cc3)ccc2c1 [nafamostat, 6′-amidino-2-naphthyl 4-guanidinobenzoate]
[1]; male, Sprague-Dawley, plasma, IV injection 2 mg/kg in 5% DMSO, read-out: Vss
  Vd: 0.99 ± 0.65 L/kg
[1]; male, Sprague-Dawley, plasma, oral 20 mg/kg, vehicle 2: 10% DMSO + 10% Tween 80, read-out: CL or CL/F
  CL/F: 319 ± 119 L/h/kg
[1]; [5]
  AUC(0-inf): 0.447 ± 0.0359 µg·h/mL
  half-life: 1.39 h
[1]; male, Sprague-Dawley, plasma, iv, 2 mg/kg, IV injection 2 mg/kg in 5% DMSO, plasma, read-out: C0 or Cmax
  Cmax: 5.29 ± 0.808 µg/mL
[1]; [6]
  AUC(0-inf): 0.0424 ± 0.0125 µg·h/mL
  Tmax: 0.45 ± 0.21 h
  bioavailability: 0.95 ± 0.25%
  half-life: 2.21 ± 1.3 h
[1]; male, Sprague-Dawley, plasma, po, 20 mg/kg, oral 20 mg/kg, vehicle 1: 10% DMSO, read-out: C0 or Cmax
  Cmax: 0.0278 ± 0.00817 µg/mL
[1]; [7]
  AUC(0-inf): 0.0712 ± 0.0299 µg·h/mL
  Tmax: 1 ± 0.53 h
  bioavailability: 1.59 ± 0.6%
  half-life: 2.3 ± 1.11 h
[1]; male, Sprague-Dawley, plasma, po, 20 mg/kg, oral 20 mg/kg, vehicle 2: 10% DMSO + 10% Tween 80, read-out: C0 or Cmax
  Cmax: 0.0332 ± 0.0188 µg/mL
[1]; [8]
  CL or CL/F: 4.495 ± 0.367 L/h/kg
  Vz or Vz/F: 8.75 ± 3.80 L/kg
[1]; IV injection 2 mg/kg in 5% DMSO, plasma, 2 mg/kg
  t1/2: 1.34 ± 0.51 h
[1]; oral 20 mg/kg, vehicle 1: 10% DMSO
  Vz or Vz/F: 1906.08 ± 1841.14 L/kg
[1]; oral 20 mg/kg, vehicle 2: 10% DMSO + 10% Tween 80
  Vz or Vz/F: 998.85 ± 401.04 L/kg
[1]; oral administration 20 mg/kg, both vehicles
  time to reach peak concentration (Cmax): ≤ 1.0 h
[2]; 0.1% ammonium hydroxide (pH = 10.5), A: immediately
  stability (observed vs theoretical concentration): 29.29 ± 1.26%
[2]; 0.1% ammonium hydroxide (pH = 10.5), B: after 24 h at room temperature
  stability (observed vs theoretical concentration): 0.09 ± 0.01%
[2]; 0.1% ammonium hydroxide (pH = 10.5), C: after 5 freeze-thaw cycles
  stability (observed vs theoretical concentration): 5.21 ± 0.32%
[2]; 0.1% ammonium hydroxide (pH = 10.5), D: after 10 days at −20 °C
  stability (observed vs theoretical concentration): 0.13 ± 0.08%
[2]; 0.1% formic acid (pH = 2.8), A: immediately
  stability (observed vs theoretical concentration): 66.56 ± 3.73%
[2]; 0.1% formic acid (pH = 2.8), B: after 24 h at room temperature
  stability (observed vs theoretical concentration): 0.16 ± 0.05%
[2]; 0.1% formic acid (pH = 2.8), C: after 5 freeze-thaw cycles
  stability (observed vs theoretical concentration): 48.25 ± 2.26%
[2]; 0.1% formic acid (pH = 2.8), D: after 10 days at −20 °C
  stability (observed vs theoretical concentration): 0.12 ± 0.07%
[2]; 0.35% HCl (pH = 1.2), A: immediately
  stability (observed vs theoretical concentration): 103.67 ± 0.60%
[2]; 0.35% HCl (pH = 1.2), B: after 24 h at room temperature
  stability (observed vs theoretical concentration): 104.42 ± 2.50%
[2]; 0.35% HCl (pH = 1.2), C: after 5 freeze-thaw cycles
  stability (observed vs theoretical concentration): 103.12 ± 2.19%
[2]; 0.35% HCl (pH = 1.2), D: after 10 days at −20 °C
  stability (observed vs theoretical concentration): 107.15 ± 0.69%
[2]; 1.0% formic acid (pH = 2.2), A: immediately
  stability (observed vs theoretical concentration): 97.66 ± 6.58%
[2]; 1.0% formic acid (pH = 2.2), B: after 24 h at room temperature
  stability (observed vs theoretical concentration): 100.05 ± 1.83%
[2]; 1.0% formic acid (pH = 2.2), C: after 5 freeze-thaw cycles
  stability (observed vs theoretical concentration): 101.86 ± 1.51%
[2]; 1.0% formic acid (pH = 2.2), D: after 10 days at −20 °C
  stability (observed vs theoretical concentration): 105.67 ± 0.59%
[2]; saline (pH = 5.5), A: immediately
  stability (observed vs theoretical concentration): 63.47 ± 2.32%
[2]; saline (pH = 5.5), B: after 24 h at room temperature
  stability (observed vs theoretical concentration): 0.13 ± 0.03%
[2]; saline (pH = 5.5), C: after 5 freeze-thaw cycles
  stability (observed vs theoretical concentration): 19.01 ± 1.61%
[2]; saline (pH = 5.5), D: after 10 days at −20 °C
  stability (observed vs theoretical concentration): 9.93 ± 1.76%
[3]
  t1/2(β): 1.87 to 2.13 h
[4]; 2 ng/mL
  Percentage over Theoretical Concentration, Long-Term Stability: 97.25 ± 4.73%
  Percentage over Theoretical Concentration, Freeze/Thaw Stability: 99.02 ± 3.61%
  Percentage over Theoretical Concentration, Autosampler Stability: 97.2 ± 4.98%
  Percentage over Theoretical Concentration, Short-Term Stability: 96.57 ± 2.66%
[4]; 80 ng/mL
  Percentage over Theoretical Concentration, Long-Term Stability: 99.38 ± 0.49%
  Percentage over Theoretical Concentration, Freeze/Thaw Stability: 100.40 ± 0.20%
  Percentage over Theoretical Concentration, Autosampler Stability: 101.31 ± 2.00%
  Percentage over Theoretical Concentration, Short-Term Stability: 101.11 ± 1.95%
[4]; 160 ng/mL
  Percentage over Theoretical Concentration, Long-Term Stability: 96.62 ± 1.63%
  Percentage over Theoretical Concentration, Freeze/Thaw Stability: 98.44 ± 0.58%
  Percentage over Theoretical Concentration, Autosampler Stability: 97.45 ± 0.31%
  Percentage over Theoretical Concentration, Short-Term Stability: 97.64 ± 2.18%
